Patent US20260176274A1, “ENAMINE N-OXIDE TOOLS FOR TARGET IDENTIFICATION APPLICATIONS” (DANA-FARBER CANCER INSTITUTE, INC., priority 2022, published 2026)
“Also recorded” adds a separate entry of the source.

Columns and labels:
carbonic anhydrase (CA) [1] = target: T1, carbonic anhydrase (CA) (Bos taurus, UniProt P00921); assay: Ligand-directed labeling of equimolar recombinant BSA/CA mixture, in-gel fluorescence; type: binding; settings: equimolar BSA and CA; probe 200 nM, B2(OH)4 100 μM, 10 min, PBS pH 7.4
Method: An equimolar suspension of recombinant BSA and recombinant CA was prepared by combining BSA (22 μg, 1 mg/mL in PBS, pH 7.4) and CA (10 pg, 1 mg/mL in PBS, pH 7.4) in PBS, pH 7.4 (1 mL). This was approximately 333 nM of each protein. For each reaction, an aliquot of this mixture (97 μL) was added to a microcentrifuge tube. […] Sulfonamide competitor (21′, 1 μL, 5 mM solution in 1% DMSO/PBS; 50 μM final concentration) or PBS, pH 7.4 (1 μL) vehicle control was added to the samples. The tubes were incubated at rt for 30 min. Tetrahydroxydiboron (1 μL, 10 mM solution; 100 μM final concentration) was subsequently added with gentle mixing. The tubes were incubated at rt for an additional 10 min. Subsequently, CuAAC click-cocktail solution containing TAMRA-azide (6 μL) was added and the tubes were incubated at rt in the dark for 1 h.
For sample preparation, 5× sample loading buffer (25 μL) was added directly to the TAMRA-modified BSA/CA samples. The samples were subsequently heated to 95° C. for 10 min and then subjected to SDS-PAGE and in-gel fluorescence imaging. In-gel fluorescence imaging was performed on a Typhoon™ FLA 9500 (GE) at 532 nm with photomultiplier tube (PMT) setting of 300 V.

CA2 [2] = target: T2, CA2 (Homo sapiens, UniProt P00918); assay: Labeling of endogenous CA in HEK293T cell lysate, streptavidin blot or pulldown and immunoblot against CA2; type: binding; settings: probe 200 nM; diboron 100 μM 10 min or UV irradiation 10 min
T2 construct: endogenous in cells; host or cells: HEK293T
Method: For sample preparation, 5× sample loading buffer was added directly at least 10 μg aliquot of the clicked cell lysate clicked with biotin (picolyl) azide. The samples were subsequently heated to 95° C. for 10 min and loaded onto a BioRad Mini-PROTEAN® TGX™ Precast Protein gel, 4-20% (15 μL) and run in freshly prepared Tris-glycine running buffer (160 V, 50 min). The gel was washed (3×DI water) and transferred to a 0.2 μm PVDF membrane. After transfer, the membrane was washed (3×TBST) and blocked with 5% fish skin gelatin (or any appropriate blocking buffer for Western blot) in TBST (rt, 1 h), and subsequently incubated with the appropriate primary antibody (1:1000 dilution in 5% fish skin gelatin in TBST, rt, 1 h). The membrane was washed (3×TBST) and incubated with the appropriate secondary antibody (1:10000 dilution in 5% fish gelatin in TBST, rt, 1 h). The membrane was again washed thoroughly with TBST and imaged using a chemiluminescence imager (Amersham™ Imager 600, GE).
Samples were loaded onto a Bio-Rad Mini-PROTEAN® TGX™ Precast Protein 15-well gel, 4-20% (15 μL) alongside All Blue Prestained Protein Standard (Bio-Rad, 5 μL) as a ladder, and run in freshly prepared Tris-glycine running buffer (180 V, 45 min). The gel was washed (3×50 mL deionized water) and transferred to a 0.2 m low fluorescence PVDF membrane (Bio-Rad) using a semi-dry transfer apparatus (Bio-Rad Trans-Blot® Turbo™ Transfer System) and preprogrammed transfer setting (1.3 A, 25 V, 10 min).

CA2 [3] = target: T2, CA2; assay: In cellulo BARS labeling in live HEK293T cells, immunoblot against CA2; type: cell-based; settings: probe 5 μM 2 h, wash, B2(OH)4 100 μM 10 min
Method: HEK293T cells were cultured in DMEM containing 10% FBS (Sigma), 100 units/mL penicillin, and 0.1 mg/mL streptomycin (Sigma) in a humidified chamber at 37° C. under an ambient atmosphere with 5% CO2. After culturing to >80% confluency in 150 mm plates, the plates were removed from the incubator, the media was aspirated, and the cells were trypsinized at 37° C. with 0.25% trypsin, 0.1% EDTA in HBSS (3 mL). After 3 min, complete growth medium (7 mL) was added to the detached cells, and the cell suspension was transferred to a 50 mL centrifuge tube. Cells were pelleted (400×g, 4 min, 23° C.) and washed with 2×20 mL PBS, pH 7.4. At this point, the density of the cell suspension in PBS was determined by the trypan blue exclusion method. The cells were pelleted once more, and the volume of PBS was adjusted to produce a cell suspension with a final density of 2×10^7 cells/mL. The cell suspension was aliquoted into 2 mL microcentrifuge tubes (3×1 mL, 2×10^7 cells each). […] Competitor 21′ (50 μM final concentration, from a 500 mM stock in DMSO) was also added to the third tube. The samples were incubated at 37° C. with end-over-end rotation. After 2 h of incubation, the cells were pelleted (400×g, 4 min, 23° C.) and washed once with PBS, pH 7.4.

carbonic anhydrase = target: T3, carbonic anhydrase (Bos taurus, UniProt P00921); assay: Labeling site identification on recombinant carbonic anhydrase by nano-LC-MS/MS; set-up: species or system bovine; settings: probe 10 μM, B2(OH)4 100 μM
T3 construct: purchased MP Biomedicals; host or cells: bovine erythrocytes
Method: BARS probe 21′a: Enamine N-oxide 21′a (10 μL, 500 μM in PBS, pH 7.4; 10 μM final concentration) was added to an aliquot of recombinant CA from bovine erythrocytes ([…], MP Biomedicals) suspended in 480 μL PBS, pH 7.4 in a microcentrifuge tube and incubated at rt for 30 min. Tetrahydroxydiboron (10 μL, 5 mM in PBS, pH 7.4; 100 μM final concentration) was subsequently added and gently mixed. The tubes were incubated at rt for an additional 10 min. Subsequently, the sample was concentrated via spin filtration (Amicon® Ultra-0.5 mL, UFC500324, 10 kDa MWCO) following the manufacturer's recommended protocol. PBS was added after each filtration cycle and the concentration was repeated for a total of five times. The eluate was collected in a clean microcentrifuge tube and its concentration determined by NanoDrop (Thermo Fisher Scientific™).
An aliquot of carbonic anhydrase labeled with enamine N-oxide 21′a (prepared from the above procedure) was reduced with dithiothreitol (10 mM final concentration, 56° C., 30 min), alkylated with iodoacetamide (22.5 mM final concentration, rt, 30 min protected from light), and digested overnight with Glu-C (1:20) at 37° C. in 100 mM ammonium bicarbonate. Peptides were desalted using SP3 beads and analyzed by nano-LC-MS/MS using a nanoAcquity UPLC system interfaced to a QExactive HF mass spectrometer (Ficarro et al., Anal. Chem., 9:3440-3447 (2009)). […]

carbonic anhydrase (CA) [4] = target: T1, carbonic anhydrase (CA); assay: Intact mass spectrometry of recombinant carbonic anhydrase labeled with probe; type: binding, bovine; set-up: purchased MP Biomedicals; host or cells: bovine erythrocytes; settings: for labeling of CA (intact mass spectrometry): probe 10 μM, B2(OH)4 100 μM or UV irradiation 10 min
Method: Tetrahydroxydiboron (10 μL, 5 mM in PBS, pH 7.4; 100 μM final concentration) was subsequently added and gently mixed. The tubes were incubated at rt for an additional 10 min. Subsequently, the sample was concentrated via spin filtration (Amicon® Ultra-0.5 mL, UFC500324, 10 kDa MWCO) following the manufacturer's recommended protocol. PBS was added after each filtration cycle and the concentration was repeated for a total of five times. The eluate was collected in a clean microcentrifuge tube and its concentration determined by NanoDrop (Thermo Fisher Scientific™).
The samples were then transferred onto a 24-well plate and UV irradiated (365 nm) for 10 min on ice. After every 2 min of irradiation, the plate was rotated […] to ensure complete and equal UV exposure. After irradiation, the samples were transferred to a spin filtration column (Amicon® Ultra-0.5 mL, UFC500324, 10 kDa MWCO) and concentrated following the manufacturer's recommended protocol. PBS was added after each filtration cycle, and the concentration was repeated for a total of five times. The eluate was collected in a clean microcentrifuge tube and its concentration determined by NanoDrop (Thermo Fisher Scientific™).
Replicate samples of carbonic anhydrase (n=4; labeled with enamine N-oxide 21′a or diazirine 21′b) were desalted on a self-packed column (500 μm I.D. fused silica packed with 5 cm POROSR2 resin) and gradient eluted (0→100% B in 1 min, A=200 mM acetic acid in water, B=200 mM acetic acid in acetonitrile) to the mass spectrometer (LTQ XL mass spectrometer, Thermo Fisher Scientific; spray voltage=5 kV). The mass spectrometer recorded full scan profile spectra n z 300-2000. Mass spectra were deconvoluted using MagTran version 1.03b2 (Zhang et al., J. Am. Chem. Soc. Mass. Spectrom., 3:225-244 (1998)). Percent labeling was calculated as intensity labeled protein/(intensity unlabeled protein+intensity labeled protein)×100%.

validated targets = assay: Target identification in cell lysate: BARS probe, diboron activation, streptavidin pulldown, immunoblot against validated targets; type: binding; settings: K562 (24′a) or HepG2 (26′a) cell lysate; probe 1 μM, B2(OH)4 100 μM 10 min
Method: The click-modified cell lysate (3 mg) was transferred to 15 mL centrifuge tubes and precipitated via methanol/chloroform precipitation using the following protocol. Methanol (6 mL) was added to the lysate and vortexed. Chloroform (1.5 mL) was subsequently added and vortexed. Finally, water (4 mL) was added and vortexed. The samples were centrifuged (3000×g, 5 min, 4° C.). The top aqueous layer was removed, and methanol (8 mL) was subsequently added and vortexed. The samples were centrifuged (3000×g, 5 min, 4° C.), the supernatant was removed, and the methanol wash was repeated once more. […]
Samples were loaded onto a Bio-Rad Mini-PROTEAN® TGX™ Precast Protein 15-well gel, 4-20% (15 μL) alongside All Blue Prestained Protein Standard (Bio-Rad, 5 μL) as a ladder, and run in freshly prepared Tris-glycine running buffer (180 V, 45 min). The gel was washed (3×50 mL deionized water) and transferred to a […] low fluorescence PVDF membrane (Bio-Rad) using a semi-dry transfer apparatus (Bio-Rad Trans-Blot® Turbo™ Transfer System) and preprogrammed transfer setting (1.3 A, 25 V, 10 min). […]
Enamine N-oxide probe (15 μL; 200 nM or 1 μM final concentration for probe 21′a, […] for probes 22′a-26′a) was added to a microcentrifuge tube containing cell lysate (3 mg, as determined by BCA assay) suspended in cold NP40 lysis buffer (1.455 mL). […]

T1 sequence (P00921 whole entry): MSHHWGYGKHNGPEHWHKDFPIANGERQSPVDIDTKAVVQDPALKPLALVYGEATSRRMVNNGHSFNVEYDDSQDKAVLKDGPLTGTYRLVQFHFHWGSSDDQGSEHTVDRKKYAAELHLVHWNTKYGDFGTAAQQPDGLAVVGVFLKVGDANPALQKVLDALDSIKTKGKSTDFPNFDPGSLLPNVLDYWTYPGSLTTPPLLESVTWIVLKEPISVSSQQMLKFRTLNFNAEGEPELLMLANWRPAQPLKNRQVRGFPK
T3 sequence (P00921 whole entry): as above

Compound	labeling of endogenous CA in HEK293T cell lysate (CA2 [2])	labeling of CA (intact mass spectrometry) (carbonic anhydrase (CA) [4]) [%]	additional targets pulled down (validated targets)	other results
C#CCCC[N+](C)([O-])C(Br)=CC(Cl)CCCC(=O)NCCCOCCOCCOCCCNC(=O)c1ccc(S(N)(=O)=O)cc1 (centres unmarked) [21′a, 23-Bromo-21-chloro-N-methyl-1,17-dioxo-N-(pent-4-yn-1-yl)-1-(4-sulfamoylphenyl)-6,9,12-trioxa-2,16-diazatricos-22-en-23-amine oxide]	could also be labeled; also recorded: superior labeling	51.8	–	selectivity of labeling, CA over BSA (carbonic anhydrase (CA) [1]): CA was preferentially labeled over BSA; target identification in live HEK293T cells (CA2) (CA2 [3]): positively identified; labeling sites on CA N-terminal peptide (carbonic anhydrase): His2 or His3; improvement of CA labeling, enamine N-oxide over diazirine (carbonic anhydrase (CA) [4]; 51.8% vs 3.6% labeling): 14.4 fold
C#CCCC1(CCNC(=O)CCOCCOCCOCCNC(=O)c2ccc(S(N)(=O)=O)cc2)N=N1 [21′b, N-(15-(3-(but-3-yn-1-yl)-3H-diazirin-3-yl)-12-oxo-3,6,9-trioxa-13-azapentadecyl)-4-sulfamoylbenzamide, reference compound]	–	3.6	–	–
C#CCCC[N+](C)([O-])/C(Br)=C/C(Cl)CCCC(=O)NCCCCCCNc1cc(Nc2ncc(C(=O)Nc3c(C)cccc3Cl)s2)nc(C)n1 (centres unmarked) [24′a, (Z)-1-Bromo-3-chloro-7-((6-((6-((5-((2-chloro-6-methylphenyl)carbamoyl)thiazol-2-yl)amino)-2-methylpyrimidin-4-yl)amino)hexyl)amino)-N-methyl-7-oxo-N-(pent-4-yn-1-yl)hept-1-en-1-amine oxide]	–	–	ABL and p38 pulled down	–
C#CCCC[N+](C)([O-])/C(Br)=C/C(Cl)CCCC(=O)N(C)[C@@H]1C[C@H]2O[C@@](C)([C@@H]1OC)n1c3ccccc3c3c4c(c5c6ccccc6n2c5c31)C(=O)NC4 (stereo partly drawn) [26′a, (Z)-1-Bromo-3-chloro-7-(((5S,6R,7R,9R)-6-methoxy-5-methyl-14-oxo-6,7,8,9,15,16-hexahydro-5H,14H-17-oxa-4b,9a,15-triaza-5,9-methanodibenzo[b,h]cyclonona[jkl]cyclopenta[e]-as-indacen-7-yl)(methyl)amino)-N-methyl-7-oxo-N-(pent-4-yn-1-yl)hept-1-en-1-amine oxide]	–	–	PKC and SRC pulled down	–
CCN(CC)C(=O)C=CCCc1ccccc1 [compound 13, reference compound]	barely perceptible	–	–	protein labeled (intact mass spectrometry of CA) (carbonic anhydrase (CA) [4]; N-oxide probe plus diboron or diazirine probe plus UV irradiation): < 1%
